How the values were obtained:
[1] = tested on: HIV-1DRV^RP30; assay type: cell-based; details: HIV-1DRV^RP30, MT-4 cells
[2] = tested on: highly drug-resistant HIV-1 variants; test: Antiviral activity against the panel of highly drug-resistant HIV-1 variants; assay type: cell-based; details: for ability to block replication of highly PI-resistant HIV-1 variants (in words): panel of Table 3
[3] = tested on: HIV-1ATV-5 μM; assay type: cell-based; details: MT-4 cells
[4] = biological target: HIV-1 protease (Human immunodeficiency virus type 1 group M subtype B, UniProt P04585); test: HIV-1 protease inhibition assay; assay type: biochemical; details: compared to 5b with the enantiomeric P2 ligand
[5] = tested on: HIV-1LAI; test: Antiviral assay in MT-2 human T-lymphoid cells exposed to HIV-1LAI; assay type: cell-based; details: MT-2 cells

COC(=O)N[C@H](C(=O)N[C@@H](Cc1ccccc1)[C@@H](O)CN(Cc1ccc(-c2ccccn2)cc1)NC(=O)[C@@H](NC(=O)OC)C(C)(C)C)C(C)(C)C [ATV, atazanavir]
fold-change in IC50 compared to wild-type HIV-1NL4-3 [1]: > 250 fold
ability to block replication of highly PI-resistant HIV-1 variants (in words) [2]: unable to suppress the replication
fold-change in IC50 compared to wild-type HIV-1NL4-3 [3]: > 250 fold

CC(C)CN(C[C@@H](O)[C@H](Cc1ccccc1)NC(=O)OC1C[C@@H]2CO[C@@H]3OC1C[C@H]23)S(=O)(=O)c1ccc2nc(NC3CC3)sc2c1 (stereo partly drawn) [inhibitor 4b, (1R,3aS,7aR)-Octahydro-1,6-epoxyisobenzofuran-5-yl((2S,3R)-4-((2-(Cyclopropylamino)-N-isobutylbenzo[d]-thiazole)-6-sulfonamido)-3-hydroxy-1-phenylbutan-2-yl)-carbamate]
fold better enzyme Ki than inhibitor 5b [4]: ~10 fold

CC(C)CN(C[C@@H](O)[C@H](Cc1cc(F)cc(F)c1)NC(=O)OC1C[C@@H]2CO[C@@H]3OC1C[C@H]23)S(=O)(=O)c1ccc2nc(NC3CC3)sc2c1 (stereo partly drawn) [inhibitor 4d, (1R,3aS,7aR)-Octahydro-1,6-epoxyisobenzofuran-5-yl((2S,3R)-4-((2-(Cyclopropylamino)-N-isobutylbenzo[d]-thiazole)-6-sulfonamido)-1-(3,5-difluorophenyl)-3-hydroxybutan-2-yl)carbamate]
IC50 ([2]; Human immunodeficiency virus 1, read-out: antiviral activity against highly drug-resistant HIV-1 variants): 0.21 to 4.5 nM

CC(C)CN(C[C@@H](O)[C@H](Cc1ccc(F)cc1)NC(=O)OC1C[C@@H]2CO[C@@H]3OC1C[C@H]23)S(=O)(=O)c1ccc2nc(NC3CC3)sc2c1 (stereo partly drawn) [inhibitor 4f, (1R,3aS,7aR)-Octahydro-1,6-epoxyisobenzofuran-5-yl((2S,3R)-4-((2-(Cyclopropylamino)-N-isobutylbenzo[d]-thiazole)-6-sulfonamido)-1-(4-fluorophenyl)-3-hydroxybutan-2-yl)carbamate]
fold improvement of antiviral activity compared to inhibitor 4b [5]: over 7 fold

CC(C)CN(C[C@@H](O)[C@H](Cc1ccccc1)NC(=O)O[C@H]1C[C@H]2CO[C@H]3OC1C[C@@H]23)S(=O)(=O)c1ccc2nc(NC(C)C)oc2c1 [inhibitor 5c, (1S,3aR,5S,7aS)-Octahydro-1,6-epoxyisobenzofuran-5-yl((2S,3R)-3-Hydroxy-4-((N-isobutyl-2-(isopropylamino)benzo-[d]oxazole)-6-sulfonamido)-1-phenylbutan-2-yl)carbamate]
fold improvement of antiviral activity compared to inhibitor 4c [5]: over 5 fold
ability to block replication of highly PI-resistant HIV-1 variants (in words) [2]: failed to block replication

CC(C)CN(C[C@@H](O)[C@H](Cc1cc(F)cc(F)c1)NC(=O)O[C@H]1C[C@H]2CO[C@H]3OC1C[C@@H]23)S(=O)(=O)c1ccc2nc(NC3CC3)sc2c1 [inhibitor 5d, (1S,3aR,5S,7aS)-Octahydro-1,6-epoxyisobenzofuran-5-yl((2S,3R)-4-((2-(Cyclopropylamino)-N-isobutylbenzo[d]-thiazole)-6-sulfonamido)-1-(3,5-difluorophenyl)-3-hydroxy-butan-2-yl)carbamate]
fold reduction of antiviral activity compared to inhibitor 4d [5]: ~25 fold

CC(C)CN(C[C@@H](O)[C@H](Cc1ccc(F)cc1)NC(=O)O[C@H]1C[C@H]2CO[C@H]3OC1C[C@@H]23)S(=O)(=O)c1ccc2nc(NC3CC3)sc2c1 [inhibitor 5f, (1S,3aR,5S,7aS)-Octahydro-1,6-epoxyisobenzofuran-5-yl((2S,3R)-4-((2-(Cyclopropylamino)-N-isobutylbenzo[d]-thiazole)-6-sulfonamido)-1-(4-fluorophenyl)-3-hydroxybutan-2-yl)carbamate]
fold improvement of antiviral activity compared to inhibitor 5b [5]: over 4 fold

Reference: PMC7425579 (Journal of medicinal chemistry, 2020)
